Data taken from PMC6270304, “Synthesis, Structure and Cytotoxic Activity of New Acetylenic Derivatives of Betulin” (Molecules, 2013).
In brackets after ≈: the same amount, converted by molar mass.

Assays:
[1] = system: SW707 (human colorectal adenocarcinoma); test: Antiproliferative assay in vitro (SRB); format: cell-based; settings: for IC50: Homo sapiens, SW707, read-out: Cytotoxic activity IC50, Human SW707
Procedure: (§1) Cytotoxic activities of all newly synthesized compounds including betulin (1) were tested in SRB or MTT (in the case of leukemia cells) assay for their antiproliferative activity in vitro against three human cancer cell lines: SW707 (colorectal adenocarcinoma), CCRF/CEM (leukemia), T47D (breast cancer), and murine leukemia P388 as well as Balb3T3 normal fibroblasts cell lines. […] A value of less than 4 μg/mL was considered as an antiproliferative activity criterion for synthetic compounds [31].
(§2) The following established in vitro cell lines were applied: SW707 (human colorectal adenocarcinoma), CCRF/CEM (human leukemia), T47D (human breast cancer), P388 (mouse leukemia) and Balb3T3 (normal mouse fibroblasts). All lines were obtained from the American Type Culture Collection (Rockville, MD, USA) and maintained at the Cell Culture Collection of the Institute of Immunology and Experimental Therapy (Wroclaw, Poland).
(§3) Twenty-four hours before addition of the tested agents, the cells were plated in 96-well plates (Sarstedt, Numbrecht, Germany) at a density of 10^4 cells per well in 100 μL of culture medium. The cells were cultured in the opti-MEM medium supplemented with 2 mM glutamine (Gibco, Grand Island, NY, USA), streptomycin (50 μg/mL), penicillin (50 U/mL) (both antibiotics from Polfa, Tarchomin, Poland) and 5% fetal calf serum (Gibco). The cell cultures were maintained at 37 °C in humid atmosphere saturated with 5% CO2.
(§4) The compounds were dissolved in DMSO and culture medium (1:9) to the concentration of 1 mg/mL, and subsequently diluted in culture medium to reach the required concentrations (ranging from […]).
(§5) The in vitro cytotoxic effect of all agents was examined using the SRB assay for adherent cells and MTT assay for leukemia cells as described by Wietrzyk et al.. Each compound in given concentration was tested in triplicates in each experiment, which was repeated 3–5 times.

[2] = system: T47D (human breast cancer); test: Antiproliferative assay in vitro (SRB); format: cell-based; settings: for IC50: Homo sapiens, T47D, read-out: Cytotoxic activity IC50, Human T47D
Procedure: as §1, §2, §3, §4, §5

[3] = system: CCRF/CEM (human leukemia); test: Antiproliferative assay in vitro (MTT); format: cell-based; settings: for IC50: Homo sapiens, CCRF-CEM, read-out: Cytotoxic activity IC50, Human CCRF/CEM
Procedure: as §1, §2, §3, §4, §5

P388 (mouse leukemia) = test: Antiproliferative assay in vitro (MTT); format: cell-based; settings: for IC50: Mus musculus, P388, read-out: Cytotoxic activity IC50, Murine P388
Procedure: as §1, §2, §3, §4, §5

[4] = system: investigated cancer cell lines (T47D, CCRF/CEM, SW707, P388, Balb3T3); test: cells; format: cell-based, human and murine
Procedure: as §1, §2, §3, §4, §5

[5] = system: Balb3T3 (normal mouse fibroblasts); test: Antiproliferative assay in vitro (SRB); format: cell-based
Procedure: as §1, §2, §3, §4, §5

SMILES | IC50 [1] [µg/mL] | IC50 [2] [µg/mL] | IC50 [3] [µg/mL] | IC50 (P388 (mouse leukemia)) [µg/mL] | cytotoxicity relative to betulin (1) [4] | melting point [°C] | Cytotoxic activity IC50, Murine Balb3T3 [5] | Cytotoxic activity IC50, Human SW707 [1] | Cytotoxic activity IC50, Human T47D [2] | Cytotoxic activity IC50, Human CCRF/CEM [3] | Cytotoxic activity IC50, Murine P388 (P388 (mouse leukemia)) | ID50 value against human leukemia (CCRF/CEM) cell line ([3]; CCRF/CEM, abstract wording) [µg/mL] | selectivity index (SI) ([3]; ratio IC50 of normal fibroblast (Balb3T3) / IC50 on CCRF/CEM)
C#CCOC(=O)OC[C@]12CCC(C(=C)C)C1C1CCC3[C@@]4(C)CC[C@H](O)C(C)(C)C4CC[C@@]3(C)[C@]1(C)CC2 (stereo partly drawn) [Compound 3a, 28-O-Propargyloxycarbonylbetulin] | 9.2 ± 7.1 (≈ 17.5 µM) | 7.2 ± 1.7 (≈ 13.7 µM) | 3.2 ± 0.4 (≈ 6.1 µM) | 2.9 ± 0.2 (≈ 5.53 µM) | three to four times more cytotoxic than betulin | – | – | – | – | – | – | – | –
C#CCCOC(=O)OC[C@]12CCC(C(=C)C)C1C1CCC3[C@@]4(C)CC[C@H](O)C(C)(C)C4CC[C@@]3(C)[C@]1(C)CC2 (stereo partly drawn) [Compound 3b, 28-O-(3-Butynyloxycarbonyl)betulin] | 22.6 ± 11.9 (≈ 41.9 µM) | 6.9 ± 2.3 (≈ 12.8 µM) | 5.2 ± 1.4 (≈ 9.65 µM) | 3.6 ± 1.3 (≈ 6.68 µM) | – | 86 to 88 | – | – | – | – | – | – | –
C=C(C)C1CC[C@]2(COC(=O)OCC#CC)CC[C@]3(C)C(CCC4[C@@]5(C)CC[C@H](O)C(C)(C)C5CC[C@]43C)C12 (stereo partly drawn) [Compound 3c, 28-O-(2-Butynyloxycarbonyl)betulin] | 36.9 ± 6.3 (≈ 68.5 µM) | 20.1 ± 5.3 (≈ 37.3 µM) | 6.8 ± 2.9 (≈ 12.6 µM) | 5.5 ± 2.8 (≈ 10.2 µM) | – | 112 to 114 | – | – | – | – | – | – | –
C=C(C)C1CC[C@]2(COC(=O)OCC)CC[C@]3(C)C(CCC4[C@@]5(C)CC[C@H](O)C(C)(C)C5CC[C@]43C)C12 (stereo partly drawn) [Compound 3d, 28-O-Ethoxycarbonylbetulin] | 20.8 ± 14.7 (≈ 40.4 µM) | 6.6 ± 1.3 (≈ 12.8 µM) | 4.1 ± 0.2 (≈ 7.96 µM) | 3.8 ± 1.9 (≈ 7.38 µM) | – | 94 to 96 | – | – | – | – | – | – | –
C#CCOC(=O)OC[C@]12CCC(C(=C)C)C1C1CCC3[C@@]4(C)CC[C@H](OC(=O)OCC#C)C(C)(C)C4CC[C@@]3(C)[C@]1(C)CC2 (stereo partly drawn) [Compound 4a, 3,28-O,O'-Di(propargyloxycarbonyl)betulin] | – | – | – | 33.4 ± 1.7 (≈ 55 µM) | – | 125 to 127 | Neg | Neg | Neg | Neg | – | – | –
C#CCCOC(=O)OC[C@]12CCC(C(=C)C)C1C1CCC3[C@@]4(C)CC[C@H](OC(=O)OCCC#C)C(C)(C)C4CC[C@@]3(C)[C@]1(C)CC2 (stereo partly drawn) [Compound 4b, 3,28-O,O'-Di(3-butynyloxycarbonyl)betulin] | – | – | – | – | – | 140 to 142 | Neg | Neg | Neg | Neg | Neg | – | –
C=C(C)C1CC[C@]2(COC(=O)OCC#CC)CC[C@]3(C)C(CCC4[C@@]5(C)CC[C@H](OC(=O)OCC#CC)C(C)(C)C5CC[C@]43C)C12 (stereo partly drawn) [Compound 4c, 3,28-O,O'-Di(2-butynyloxycarbonyl)betulin] | – | – | – | 50.4 ± 31.1 (≈ 79.4 µM) | – | 70 to 73 | Neg | Neg | Neg | Neg | – | – | –
C=C(C)C1CC[C@]2(COC(=O)OCC)CC[C@]3(C)C(CCC4[C@@]5(C)CC[C@H](OC(=O)OCC)C(C)(C)C5CC[C@]43C)C12 (stereo partly drawn) [Compound 4d, 3,28-O,O'-Di(ethoxycarbonyl)betulin] | – | 69.1 ± 12.4 (≈ 118 µM) | 52.6 ± 8.3 (≈ 89.6 µM) | 46.8 ± 21.6 (≈ 79.7 µM) | – | 84 to 86 | Neg | Neg | – | – | – | – | –
C#CC(=O)OCC12CCC(C(=C)C)C1C1CCC3C4(C)CCC(O)C(C)(C)C4CCC3(C)C1(C)CC2 (stereo not drawn) [Compound 5a, 28-O-Propynoylbetulin] | 14.9 ± 3.3 (≈ 30.1 µM) | 9.1 ± 1.9 (≈ 18.4 µM) | 0.02 ± 0.001 (≈ 0.0404 µM) | 0.4 ± 0.1 (≈ 0.808 µM) | – | – | – | – | – | – | – | 0.02 (≈ 0.0404 µM) | 15
C=C(C)C1CC[C@]2(COC(=O)CC)CC[C@]3(C)C(CCC4[C@@]5(C)CC[C@H](O)C(C)(C)C5CC[C@]43C)C12 (stereo partly drawn) [Compound 5c, 28-O-Propanoylbetulin] | 29.2 ± 24.4 (≈ 58.5 µM) | 12.1 ± 4.4 (≈ 24.3 µM) | 8.1 ± 0.9 (≈ 16.2 µM) | 3.3 ± 0.8 (≈ 6.62 µM) | – | 160 to 162 | – | – | – | – | – | – | –
C#CC(=O)OC[C@]12CCC(C(=C)C)C1C1CCC3[C@@]4(C)CC[C@H](OC(=O)C#C)C(C)(C)C4CC[C@@]3(C)[C@]1(C)CC2 (stereo partly drawn) [Compound 6a, 3,28-O,O'-Dipropynoylbetulin] | 9.5 ± 1.9 (≈ 17.4 µM) | 16.2 ± 4.3 (≈ 29.6 µM) | 9.9 ± 7 (≈ 18.1 µM) | 31.9 ± 1.4 (≈ 58.3 µM) | – | 102 to 104 | – | – | – | – | – | – | –
C=C(C)C1CC[C@]2(COC(=O)CC)CC[C@]3(C)C(CCC4[C@@]5(C)CC[C@H](OC(=O)CC)C(C)(C)C5CC[C@]43C)C12 (stereo partly drawn) [Compound 6c, 3,28-O,O'-Dipropanoylbetulin] | 42.3 ± 9.4 (≈ 76.2 µM) | 26.6 ± 6.8 (≈ 47.9 µM) | – | 68.1 ± 14.8 (≈ 123 µM) | – | 142 to 144 | Neg | – | – | Neg | – | – | –
C=C(C)[C@@H]1CC[C@]2(COC(C)=O)CC[C@]3(C)[C@H](CC[C@@H]4[C@@]5(C)CC[C@H](O)C(C)(C)[C@@H]5CC[C@]43C)[C@@H]12 [Compound 7a, 28-O-acetylbetulin] | 5.1 ± 2.5 (≈ 10.5 µM) | 4.9 ± 0.6 (≈ 10.1 µM) | 3.4 ± 0.3 (≈ 7.01 µM) | 12.5 ± 14.7 (≈ 25.8 µM) | – | – | – | – | – | – | – | – | –
C=C(C)C1CC[C@]2(COC(C)=O)CC[C@]3(C)C(CCC4[C@@]5(C)CC[C@H](OC(C)=O)C(C)(C)C5CC[C@]43C)C12 (stereo partly drawn) [Compound 7b, 3,28-O,O'-diacetylbetulin] | – | – | 34.1 ± 6.4 (≈ 64.7 µM) | 40.2 ± 5 (≈ 76.3 µM) | – | – | Neg | Neg | Neg | – | – | – | –
C#CCOC(=O)O[C@H]1CC[C@@]2(C)C(CC[C@]3(C)C2CCC2C4C(C(=C)C)CC[C@]4(COC(C)=O)CC[C@]23C)C1(C)C (stereo partly drawn) [Compound 8a, 28-O-Acetyl-3-O'-propargyloxycarbonylbetulin] | – | – | – | – | – | 188 to 189 | Neg | Neg | Neg | Neg | Neg | – | –
C#CCCOC(=O)O[C@H]1CC[C@@]2(C)C(CC[C@]3(C)C2CCC2C4C(C(=C)C)CC[C@]4(COC(C)=O)CC[C@]23C)C1(C)C (stereo partly drawn) [Compound 8b, 28-O-Acetyl-3-O'-(3-butynyloxycarbonyl)betulin] | – | – | – | 46.7 ± 16.2 (≈ 80.4 µM) | – | 118 to 121 | Neg | Neg | Neg | Neg | – | – | –
C=C(C)C1CC[C@]2(COC(C)=O)CC[C@]3(C)C(CCC4[C@@]5(C)CC[C@H](OC(=O)OCC#CC)C(C)(C)C5CC[C@]43C)C12 (stereo partly drawn) [Compound 8c, 28-O-Acetyl-3-O'-(2-butynyloxycarbonyl)betulin] | – | – | – | – | – | 126 to 129 | Neg | Neg | Neg | Neg | Neg | – | –
C=C(C)C1CC[C@]2(COC(C)=O)CC[C@]3(C)C(CCC4[C@@]5(C)CC[C@H](OC(=O)OCC)C(C)(C)C5CC[C@]43C)C12 (stereo partly drawn) [Compound 8d, 28-O-Acetyl-3-O'-(ethoxycarbonyl)betulin] | – | – | – | – | – | 200 to 202 | Neg | Neg | Neg | Neg | Neg | – | –
